In PubChem BioAssay (NCI):
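Cultured in 96-well plates, cells were exposed to test compound for 48 hours across five concentrations. Here, GI50 denotes the concentration required for 50% inhibition of growth. TGI marks complete inhibition of growth.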

How the values were obtained:
Assay in all cases: inhibition of tumour cell growth, NCI panel, 48 h
[1] = tested on: A498 renal
[2] = tested on: BT-549 breast
[3] = tested on: DU-145 prostate
[4] = tested on: HOP-92 NSCLC
[5] = tested on: HT29 colon
[6] = tested on: MDA-MB-231 breast
[7] = tested on: MOLT-4 leukemia
[8] = tested on: NCI-H23 lung
[9] = tested on: RPMI-8226 leukemia
[10] = tested on: SW-620 colon
[11] = tested on: T-47D breast
[12] = tested on: UO-31 renal
[13] = tested on: M14 melanoma

Row | SMILES | TGI [1] [µM] | TGI [2] [µM] | TGI [3] [µM] | TGI [4] [µM] | TGI [5] [µM] | TGI [6] [µM] | TGI [7] [µM] | TGI [8] [µM] | TGI [9] [µM] | TGI [10] [µM] | TGI [11] [µM] | TGI [12] [µM] | TGI [13] [µM] | GI50 [7] [µM] | GI50 [1] [µM] | GI50 [5] [µM] | GI50 [8] [µM] | GI50 [9] [µM] | GI50 [12] [µM]
1 | NC(=O)NC(=O)c1cccc(NC(=O)CCl)c1 | 6.39 | 9.03 | 5.42 | 15.2 | 7.37 | 8.38 | 15.4 | 8.14 | 13.6 | 18.9 | 27.7 | 0.452 | – | – | – | – | – | – | –
2 | COc1cc(-c2ccccc2)cn2c1nc1ccccc12 | – | 32.9 | > 100 | 32 | 35.5 | 49.8 | 45.9 | > 100 | 62 | > 100 | 83.6 | 32.4 | 43.4 | – | – | – | – | – | –
3 | CC(C)CC1NC(=O)CCC(NC(=O)C(Cc2ccc(O)cc2)NC(=O)OCc2ccccc2)C(=O)NC(Cc2ccccc2)C(=O)NC(Cc2ccccc2)NC1=O (stereo not drawn) | – | > 100 | > 100 | > 100 | > 100 | > 100 | > 100 | > 100 | > 100 | > 100 | > 100 | > 100 | > 100 | – | – | – | – | – | –
4 | CC1(C)CCC[C@@]2(C)C1CC[C@@]1(CO1)[C@@H]2/C=C\C(C=O)CC=O (stereo partly drawn) | > 100 | > 100 | > 100 | > 100 | > 100 | > 100 | 62.2 | > 100 | > 28.1 | > 100 | > 100 | > 100 | > 100 | – | – | – | – | – | –
5 | N[C@H]1CCN(c2c(F)cc3c(=O)c(C(=O)O)cn4c3c2Oc2c-4ccc3c2ccc2ccccc23)C1 | > 100 | > 69.3 | > 62.7 | > 49.6 | > 100 | > 100 | > 100 | > 71.7 | 4.11 | > 100 | > 100 | > 71.3 | > 100 | 0.266 | – | – | – | – | –
6 | C[C@]12CC[C@H](O)CC1=CC[C@@H]1[C@@H]2CC[C@]2(C)NC(=O)/C(=C\c3ccccc3)C[C@@H]12 | 29.2 | 32.7 | 33.5 | – | 31.5 | 38.9 | 98.5 | 40.7 | 56 | 34.6 | 47 | 25.8 | 29.2 | – | – | – | – | – | –
7 | Cc1nn(C(=O)c2ccc(Cl)cc2)c2c1C(c1ccc(Cl)cc1)SC(N)=N2 (stereo not drawn) | – | > 10 | > 10 | > 10 | > 10 | > 10 | > 10 | > 10 | > 10 | > 10 | > 10 | – | > 10 | – | – | – | – | – | –
8 | COc1ccc(NC(/C(C(=O)C(=O)/C=C(\O)c2ccccc2)=C(\O)c2ccccc2)c2ccc(OC)cc2)cc1 (stereo not drawn) | > 100 | > 100 | > 100 | 75.8 | > 100 | > 100 | > 100 | > 100 | 69.1 | – | 81.4 | > 100 | > 100 | – | – | – | – | – | –
9 | COc1ccc2[nH]c3c(O)c(-c4c(C)cc5c([nH]c6ccc(OC)cc65)c4O)c(C)cc3c2c1 | 8.35 | 8.2 | 7.97 | 8.18 | 7.6 | 10.8 | 7.52 | 8.38 | 7.45 | 10.3 | 13.8 | 7.12 | 7.99 | 3.23 | 4.78 | 3.71 | 4.48 | 3.61 | 3.78
10 | CCOC(=O)c1csc(-c2cn(C)c3c2C(=O)C(OC)=CC3=O)n1 | 73.1 | > 100 | 91.3 | > 100 | > 100 | 57.8 | > 100 | > 56.7 | > 80.1 | > 100 | > 100 | > 100 | 63.3 | – | – | – | – | – | –
11 | COc1cc(OC)nc(-n2c(N)c(C(=O)O)c3ccc([N+](=O)[O-])cc3c2=O)n1 | > 100 | > 100 | > 100 | – | > 100 | > 100 | > 100 | > 100 | > 100 | > 100 | > 100 | > 100 | > 100 | – | – | – | – | – | –
12 | CCOC(=O)C1=NNC(C(=O)c2ccccc2)C1c1ccccc1 (stereo not drawn) | > 100 | 4.37 | 25.9 | 4.46 | 5.3 | 12.2 | > 34.8 | 6.17 | > 47.2 | 3.48 | 29.3 | 3.71 | 3.75 | – | – | – | – | – | –
13 | CC1=NNC(=O)C1C1C=C(c2c[nH]c3ccccc23)OC1=O (stereo not drawn) | > 100 | > 100 | > 100 | > 100 | > 100 | > 100 | > 100 | > 100 | > 100 | > 100 | > 100 | > 100 | > 100 | – | – | – | – | – | –
14 | O=C1NC(N2CCCCC2)=N/C1=C\c1ccco1 | – | > 100 | > 100 | > 100 | > 100 | > 100 | > 100 | > 100 | > 100 | > 100 | > 100 | > 100 | > 100 | – | – | – | – | – | –
15 | c1cc2c3ccsc3c3sccc3c2s1 | > 100 | > 100 | > 100 | > 100 | > 100 | > 100 | > 100 | > 100 | > 100 | > 100 | > 100 | > 100 | > 100 | – | – | – | – | – | –
16 | COc1ccc(C2=NN(C(=O)c3ccc(Cl)cc3)C(O)(c3cc(F)c(Cl)cc3Cl)C2)cc1 (stereo not drawn) | > 100 | > 100 | > 100 | > 100 | > 100 | > 100 | > 100 | > 100 | > 100 | – | > 100 | 44.4 | > 100 | – | – | – | – | – | –
17 | Oc1cccc2ccc(Br)nc12 | > 100 | > 100 | > 100 | > 100 | > 100 | > 100 | > 100 | > 100 | > 100 | > 100 | > 100 | > 100 | > 100 | – | – | – | – | – | –
